Measured values taken from US20240366555A1, “SELECTIVE MTORC2 INHIBITOR AND USES THEREOF” (ALIAD BIOPHARMA, priority 2021, published 2024).
pIC50: −log10 of the molar value. Read-outs that look alike come from different tables or passages of the source.

Columns and labels:
mTORC2 = mTORC2 (Homo sapiens, UniProt P42345); experiment: LocaTOR2 assay in A549 cells (FRB-AKT2 Ser473 phosphorylation); assay type: cell-based; design: endogenous in cells; host or cells: A549 (transfected only with the FKBP-recruiter and the FRB-AKT2 reporter); conditions: for pIC50: FIG. 9g
Excerpt: mTORC2 is located in the cell membrane, endosome, ER and mitochondrial membrane. mTORC2 forms an mTORC2 complex as an activated form of ras (ras-GTP) operates as a scaffold in the cell membrane, whereas it forms an mTORC2 complex as mLST8 operates as a scaffold in the endosome. By this difference, the mTORC2 inhibitory effect of norathyriol may be shown differently depending on the subcellular compartment where mTORC2 is located. In order to investigate the mTORC2 inhibitory effect of norathyriol depending on the subcellular compartment location, in vivo LocaTOR2 assay was performed (Ebner et al. (2017) J. Cell Biol. 216:343-353). After introducing FKBP-recruiter selectively located in the membrane of the subcellular compartment and FRB^T2098L-AKT2 which is an mTORC2 substrate, AP21967 was treated for 40 minutes to induce binding between the FKBP-recruiter and FRB-AKT2, and FRB-AKT2 was moved to a specific subcellular compartment. In addition, the degree of phosphorylation of Ser473 of FRB-Akt by mTORC2 located in the site thereof was investigated by immunoblot analysis.

normal mice = experiment: Y-type maze test in normal mice; assay type: in vivo; conditions: 5 mg/kg intraperitoneally, FIG. 14a
Description: A Y-maze was performed in a Y-shaped structure maze made of black acrylic material in which an angle of each arm was 120°, and a light and a cam were installed on the ceiling, and it was checked that white mice entered each arm while the surroundings were covered with a curtain. Through this, short-term memory was analyzed. In order to adapt mice to the environment, they were acclimated to the experimental space for 30 minutes. The mice were placed at one end of the maze and allowed to move freely for 12 minutes. Accuracy was measured by dividing time into 8 minutes, 10 minutes and 12 minutes. When the four paws of the mice entered the entrance, it was considered as completely entered. The percentage of accuracy was calculated as the number of times which a mouse entered each maze without repetition. […]
In order to verify this possibility, the efficacy of athyriol on memory ability and sociability of normal animals was investigated. A vehicle (30% DMSO) or athyriol was intraperitoneally injected at a dose of 5 mg/kg into normal mice (n=10), and from the 7th day after administration, the memory ability was evaluated by the same method as the Y-type maze test of Experimental example 1-2, and the sociability was evaluated by the same method as the 3 chamber test of Experimental example 1-6.

SMILES | FRB-AKT2 Ser473 phosphorylation, mitochondria (mTORC2; A549, Bcl-XL-FKBP recruiter, FIG. 9e) | FRB-AKT2 Ser473 phosphorylation, mTORC2 located in cell membrane (mTORC2; A549, KRas4B^C30-FKBP recruiter, AP21967, norathyriol at 30 μM and 60 μM, FIG. 9a) | FRB-AKT2 Ser473 phosphorylation, mTORC2 located in early endosome (mTORC2; A549, Rab5-FKBP recruiter, FIG. 9b) | FRB-AKT2 Ser473 phosphorylation, mTORC2 located in late endosome (mTORC2; A549, Rab7-FKBP recruiter, FIG. 9c) | FRB-AKT2 Ser473 phosphorylation, mTORC2 located in recycling endosome (mTORC2; A549, Rab11-FKBP recruiter, FIG. 9d) | FRB-AKT2 Ser473 phosphorylation, ER (mTORC2; A549, TcRb-FKBP recruiter, FIG. 9f) | pIC50 (mTORC2; mTORC2 located in cell membrane (plasma membrane), read-out: IC50, mTORC2, PM) | pIC50 (mTORC2; mTORC2 located in early endosome, read-out: IC50, mTORC2, EE) | pIC50 (mTORC2; mTORC2 located in late endosome, read-out: IC50, mTORC2, LE) | pIC50 (mTORC2; mTORC2 located in recycling endosome, read-out: IC50, mTORC2, RE) | improvement of memory ability in Y-type maze test compared to vehicle control (normal mice)
O=c1c2cc(O)c(O)cc2oc2cc(O)cc(O)c12 [norathyriol, 1,3,6,7-tetrahydroxy-9H-xanthen-9-one] | reduced | not reduced | reduced at a significant level | reduced at a significant level | reduced at a significant level | reduced | < 4.22 | > 4.52 | > 4.52 | 4.40 | 
COc1cc(O)c2c(=O)c3cc(O)c(O)cc3oc2c1 [athyriol, 1,6,7-Trihydroxy-3-methoxy-9H-xanthen-9-on] |  |  |  |  |  |  |  |  |  |  | ≥ 25%
